Experimental data as given in patent US10191050B2, “Rationale, methods, and assays for identifying human and non-human primate taste specific genes and use thereof in taste modulator and therapeutic screening assays” (SENOMYX, INC., priority 2007, dated 2019).

Test system: perceived human salt intensity
Experiment: Human salty taste test: effect on perceived salt intensity (experiments by the inventors)
Assay type: in vivo
From the text: Unlike other mammals, amiloride only slightly reduces the intensity of sodium chloride taste, i.e., by about 15-20% when used at concentrations that specifically modulate ENaC function (Halpern, B. P. (1998) Neuroscience and Behavioral Reviews. 23: 5-47). […] Thus, additional non-ENaC genes are likely involved in human salty taste.

Row | Compound | effect on perceived human salt intensity (tested at 300-fold above IC50 for alpha beta gamma ENaC (10-fold over IC50 for delta beta gamma ENaC)) | effect on perceived human salt intensity (tested at 3000-fold above IC50 for alpha beta gamma ENaC (100-fold over IC50 for delta beta gamma ENaC))
1 | N=C(N)NC(=O)c1nc(Cl)c(N)nc1N [amiloride] | did not elicit a significant effect | 
2 | NC(=Nc1ccccc1)NC(=O)c1nc(Cl)c(N)nc1N [phenamil] |  | did not elicit a significant effect
